≈ marks a conversion by molar mass, not a printed value. Calls of active or inactive are those of the source. No cut-off for these calls is given here.
Assays:
MDA-MB-231 [1] = test: Antiproliferative activity against human MDA-MB-231 cells up to 72 hrs by MTT assay; type: functional, cell-based; conditions: MDA-MB-231, 72 h
PC-3 = test: Antiproliferative activity against human PC3 cells up to 72 hrs by MTT assay; type: functional, cell-based; conditions: PC-3, 72 h
MDA-MB-231 [2] = test: Potency index, ratio of curcumin IC50 to compound IC50 for human MDA-MB-231 cells; type: functional
HCT-116 = test: Antiproliferative activity against human HCT116 cells up to 72 hrs by MTT assay; type: functional, cell-based; conditions: HCT-116, 72 h
MDA-MB-157 [3] = test: Antiproliferative activity against human MDA-MB-157 cells after 24 hrs by MTT assay; type: functional, cell-based; conditions: MDA-MB-157, 24 h
[4] = Solubility of the compound in water after 24 hrs by shake-flask method; type: physicochemical
MDA-MB-468 [5] = test: Antiproliferative activity against human MDA-MB-468 cells after 24 hrs by MTT assay; type: functional, cell-based; conditions: MDA-MB-468, 24 h
Mus musculus [6] = test: Toxicity in nu/nu mouse assessed as effect on food consumption at 100 mg/kg, po administered once daily for 32 days measured during compound dosing; type: organism-based; conditions: in vivo, 768 h
Mus musculus [7] = test: Toxicity in nu/nu mouse assessed as changes in body weight at 100 mg/kg, po administered once daily for 32 days measured every 4 days during compound dosing; type: organism-based; conditions: in vivo
[8] = Solubility of the compound in ethanol after 24 hrs by shake-flask method; type: physicochemical
MDA-MB-453 [9] = test: Antiproliferative activity against HER2 positive human MDA-MB-453 cells after 24 hrs by MTT assay; type: functional, cell-based; conditions: MDA-MB-453, 24 h
MDA-MB-468 [10] = test: Antiproliferative activity against doxorubicin-resistant human MDA-MB-468 cells after 24 hrs by MTT assay; type: functional, cell-based; conditions: MDA-MB-468, 24 h
MCF7 [11] = test: Antiproliferative activity against ER/PR positive human MCF7 cells after 24 hrs by MTT assay; type: functional, cell-based; conditions: MCF7, 24 h
BT-474 [12] = test: Antiproliferative activity against HER2 positive human BT474 cells after 24 hrs by MTT assay; type: functional, cell-based; conditions: BT-474, 24 h
T47D [13] = test: Antiproliferative activity against ER/PR positive human T47D cells after 24 hrs by MTT assay; type: functional, cell-based
Mus musculus [14] = test: Toxicity in nu/nu mouse assessed as behavioral changes at 100 mg/kg, po administered once daily for 32 days measured during compound dosing; type: organism-based; conditions: in vivo, 768 h
Hs-578T [15] = test: Antiproliferative activity against human Hs578T cells after 24 hrs by MTT assay; type: functional, cell-based
SK-BR-3 [16] = test: Antiproliferative activity against HER2 positive human SKBR3 cells after 24 hrs by MTT assay; type: functional, cell-based; conditions: SK-BR-3, 24 h
MDA-MB-157 [17] = test: Potency index, ratio of curcumin IC50 to compound IC50 for human MDA-MB-157 cells; type: functional
Mus musculus [18] = test: Toxicity in nu/nu mouse assessed as changes in body weight at 5 to 50 mg/kg, po administered once daily for 32 days measured every 4 days during compound dosing; type: organism-based; conditions: in vivo
MDA-MB-453 [19] = test: Potency index, ratio of curcumin IC50 to compound IC50 for HER2 positive human MDA-MB-453 cells; type: functional
Mus musculus [20] = test: Toxicity in nu/nu mouse assessed as change in body weight at 50 mg/kg, po administered once daily for 32 days in presence of doxorubicin; type: organism-based; conditions: in vivo, 768 h
MDA-MB-468 [21] = test: Potency index, ratio of curcumin IC50 to compound IC50 for doxorubicin-resistant human MDA-MB-468 cells; type: functional
Mus musculus [22] = test: Toxicity in nu/nu mouse assessed as behavioral changes at 50 mg/kg, po administered once daily for 32 days in presence of doxorubicin; type: organism-based; conditions: in vivo, 768 h
[23] = Stability of the compound in culture media measured after 72 hrs in presence of curcumin by HPLC method
MDA-MB-231 [24] = test: Cell cycle arrest in human MDA-MB-231 cells assessed as increase in G2/M population by propidium iodide staining based flow cytometry; type: functional
Mus musculus [25] = test: Toxicity in nu/nu mouse assessed as change in blood uric acid level at 5 to 50 mg/kg, po administered once daily for 32 days measured post last dose; type: organism-based; conditions: in vivo, 768 h
SK-BR-3 [26] = test: Potency index, ratio of curcumin IC50 to compound IC50 for HER2 positive human SKBR3 cells; type: functional
Mus musculus [27] = test: Toxicity in nu/nu mouse assessed as effect on food consumption at 5 to 50 mg/kg, po administered once daily for 32 days measured during compound dosing; type: organism-based; conditions: in vivo, 768 h
Mus musculus [28] = test: Acute-toxicity in nu/nu mouse assessed as behavioral changes at 500 mg/kg, po administered once daily for 5 days measured for 21 days; type: organism-based; conditions: in vivo, 504 h
BT-474 [29] = test: Potency index, ratio of curcumin IC50 to compound IC50 for HER2 positive human BT474 cells; type: functional
MDA-MB-231 [30] = test: Induction of autophagy in human MDA-MB-231 cells; type: functional, cell-based
Mus musculus [31] = test: Toxicity in nu/nu mouse assessed as change in serum creatinine level at 5 to 50 mg/kg, po administered once daily for 32 days measured post last dose; type: organism-based; conditions: in vivo, 768 h
T47D [32] = test: Potency index, ratio of curcumin IC50 to compound IC50 for ER/PR positive human T47D cells; type: functional
Hs-578T [33] = test: Potency index, ratio of curcumin IC50 to compound IC50 for human Hs578T cells; type: functional
MDA-MB-231 [34] = test: Effect on heme oxygenase-1 expression in human MDA-MB-231 cells by microarray analysis; type: functional, cell-based
MDA-MB-231 [35] = test: Induction of apoptosis in human MDA-MB-231 cells; type: functional, cell-based
Mus musculus [36] = test: Toxicity in nu/nu mouse assessed as change in total protein level at 5 to 50 mg/kg, po administered once daily for 32 days measured post last dose; type: organism-based; conditions: in vivo, 768 h
MDA-MB-231 [37] = test: Potency index, ratio of test compound to curcumin for anti-tumor activity against human MDA-MB-231 cells xenografted in nu/nu mouse; type: functional
Mus musculus [38] = test: Toxicity in nu/nu mouse assessed as behavioral changes at 5 to 50 mg/kg, po administered once daily for 32 days measured during compound dosing; type: organism-based; conditions: in vivo, 768 h
MDA-MB-468 [39] = test: Potency index, ratio of curcumin IC50 to compound IC50 for human MDA-MB-468 cells; type: functional
Mus musculus [40] = test: Toxicity in nu/nu mouse assessed as hematological changes at 50 mg/kg, po administered once daily for 32 days in presence of doxorubicin; type: organism-based; conditions: in vivo, 768 h
Mus musculus [41] = test: Toxicity in nu/nu mouse assessed as change in serum albumin level at 5 to 50 mg/kg, po administered once daily for 32 days measured post last dose; type: organism-based; conditions: in vivo, 768 h
Mus musculus [42] = test: Toxicity in nu/nu mouse assessed as change in blood urea nitrogen level at 5 to 50 mg/kg, po administered once daily for 32 days measured post last dose; type: organism-based; conditions: in vivo, 768 h
MDA-MB-231 [43] = test: Anti-tumor activity against human MDA-MB-231 cells xenografted in nu/nu mouse assessed as reduction in tumor weight at 50 mg/kg, po administered once daily for 32 days in presence of doxorubicin; type: functional; design: scale not given: the % may be the effect or the level left
Mus musculus [44] = test: Acute-toxicity in nu/nu mouse assessed as changes in body weight at 500 mg/kg, po administered once daily for 5 days measured for 21 days; type: organism-based; conditions: in vivo, 504 h
MCF7 [45] = test: Potency index, ratio of curcumin IC50 to compound IC50 for ER/PR positive human MCF7 cells; type: functional
MDA-MB-231 [46] = test: Anti-tumor activity against human MDA-MB-231 cells xenografted in nu/nu mouse assessed as reduction in tumor weight at 50 mg/kg, po administered once daily for 32 days; type: functional; design: scale not given: the % may be the effect or the level left
MDA-MB-231 [47] = test: Antiproliferative activity against human MDA-MB-231 cells at 1 to 3 uM in presence of doxorubicin by MTT assay; type: functional, cell-based
Mus musculus [48] = test: Toxicity in nu/nu mouse assessed as change in blood glucose level at 5 to 50 mg/kg, po administered once daily for 32 days measured post last dose; type: organism-based; conditions: in vivo, 768 h
MDA-MB-231 [49] = test: Anti-tumor activity against human MDA-MB-231 cells xenografted in nu/nu mouse assessed as reduction in tumor size at 50 mg/kg, po administered once daily for 32 days measured every 4 days during compound dosing relative to control; type: functional; design: scale not given: the % may be the effect or the level left

Compound: CCC(CC)(C(=O)/C=C/c1ccc(OC(=O)C(C)(CO)CO)c(OC)c1)C(=O)/C=C/c1ccc(OC(=O)C(C)(CO)CO)c(OC)c1
- IC50 (MDA-MB-231 [1]): 1780 nM
- IC50 (PC-3): 2.16 µM
- Ratio IC50 (MDA-MB-231 [2]): 2.4 - 12.2
- IC50 (HCT-116): 1.74 µM

Compound: COc1cc(/C=C/C(=O)CC(=O)/C=C/c2ccc(O)c(OC)c2)ccc1O [CURCUMIN]
- IC50 (MDA-MB-157 [3]): 40.4 µM
- solubility thermodynamic at 24 h [4]: 0.6 µg/mL (≈ 1.63 µM)
- IC50 (MDA-MB-231 [1]): 16200 nM
- IC50 (PC-3): 18.8 µM
- IC50 (MDA-MB-468 [5]): 42.9 µM
- Activity (Mus musculus [6]): Non-Toxic
- Activity (Mus musculus [7]): Non-Toxic
- solubility ([8]; 24 h): 1.86 mg/mL (≈ 5050 µM)
- IC50 (HCT-116): 13.8 µM
- IC50 (MDA-MB-453 [9]): 32.4 µM
- IC50 (MDA-MB-468 [10]): 58.6 µM
- IC50 (MCF7 [11]): 42.9 µM
- IC50 (BT-474 [12]): 30.1 µM
- IC50 (T47D [13]): 47.9 µM
- Activity (Mus musculus [14]): Non-Toxic
- IC50 (Hs-578T [15]): 55.5 µM
- IC50 (SK-BR-3 [16]): 42.8 µM

Compound: COc1cc(/C=C/C(=O)/C=C(O)/C=C/c2ccc(OC(=O)C(C)(CO)CO)c(OC)c2)ccc1OC(=O)C(C)(CO)CO
- Ratio IC50 (MDA-MB-157 [17]): 3.4 - 7.4
- Activity (Mus musculus [18]): Non-Toxic
- IC50 (MDA-MB-157 [3]): 9.23 µM
- Ratio IC50 (MDA-MB-453 [19]): 2.5 - 8.6
- Activity (Mus musculus [20]): Non-Toxic
- Ratio IC50 (MDA-MB-468 [21]): 10
- solubility thermodynamic at 24 h [4]: 21.1 µg/mL (≈ 35.1 µM)
- IC50 (MDA-MB-231 [1]): 2670 nM
- Activity (Mus musculus [22]): Non-Toxic
- Stability [23]: Stable
- IC50 (PC-3): 3.9 µM
- IC50 (MDA-MB-468 [5]): 6.13 µM
- Ratio IC50 (MDA-MB-231 [2]): 6.1
- Activity (MDA-MB-231 [24]): Active
- Activity (Mus musculus [25]): Non-Toxic
- solubility thermodynamic at 24 h ([8]; ethanol): 13.8 mg/mL (≈ 23100 µM)
- IC50 (HCT-116): 3.91 µM
- Ratio IC50 (SK-BR-3 [26]): 2.5 - 8.6
- Activity (Mus musculus [27]): Non-Toxic
- Activity (Mus musculus [28]): Non-Toxic
- Ratio IC50 (BT-474 [29]): 2.5 - 8.6
- Activity (MDA-MB-231 [30]): Active
- Activity (Mus musculus [31]): Non-Toxic
- Ratio IC50 (T47D [32]): 2.5 - 8.6
- Ratio IC50 (Hs-578T [33]): 3.4 - 7.4
- Activity (MDA-MB-231 [34]): Active
- IC50 (MDA-MB-453 [9]): 3.97 µM
- Activity (MDA-MB-231 [35]): Active
- IC50 (MDA-MB-468 [10]): 6.52 µM
- Activity (Mus musculus [36]): Non-Toxic
- IC50 (MCF7 [11]): 6.13 µM
- Ratio (MDA-MB-231 [37]): 10
- Activity (Mus musculus [38]): Non-Toxic
- IC50 (BT-474 [12]): 6.15 µM
- Ratio IC50 (MDA-MB-468 [39]): 3.4 - 7.4
- Activity (Mus musculus [40]): Non-Toxic
- IC50 (T47D [13]): 19.3 µM
- Activity (Mus musculus [41]): Non-Toxic
- Activity (Mus musculus [42]): Non-Toxic
- Activity (MDA-MB-231 [43]): 80%
- Activity (Mus musculus [44]): Non-Toxic
- Ratio IC50 (MCF7 [45]): 2.5 - 8.6
- Activity (MDA-MB-231 [46]): 60%
- Activity (MDA-MB-231 [47]): Active
- Activity (Mus musculus [48]): Non-Toxic
- IC50 (Hs-578T [15]): 7.96 µM
- IC50 (SK-BR-3 [16]): 6.39 µM
- Activity (MDA-MB-231 [49]): 60%

Compound: COc1cc(/C=C/C(=O)C(Cc2ccccc2)(Cc2ccccc2)C(=O)/C=C/c2ccc(OC(=O)C(C)(CO)CO)c(OC)c2)ccc1OC(=O)C(C)(CO)CO
- IC50 (MDA-MB-231 [1]): 2110 nM
- IC50 (PC-3): 7.28 µM
- Ratio IC50 (MDA-MB-231 [2]): 2.4 - 12.2
- IC50 (HCT-116): 3.88 µM

— ChEMBL document CHEMBL4038282 (Eur J Med Chem, 2017)
